From ChEMBL document CHEMBL1201862, “PubChem BioAssay data set” (2004)
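Tested at 5 concentrations; 48 h exposure; 96-well plates; endpoints linearly interpolated, else capped at highest concentration. Here, GI50 denotes the concentration required for 50% inhibition of growth.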 Calls of active or inactive are those of the source. No stated cut-off is given here; in the data, active = GI50 up to about 1.1 µM and inactive = higher.

How the values were obtained:
Assay in all cases: NCI tumour cell line growth inhibition, 48 h
NCI-H226 = tested on: NCI-H226
SF-539 = tested on: SF-539
HCT-116 = tested on: HCT-116
HCT-15 = tested on: HCT-15
UACC-62 = tested on: UACC-62
IGROV-1 = tested on: IGROV-1
MOLT-4 = tested on: MOLT-4
SW-620 = tested on: SW-620
UO-31 = tested on: UO-31
HCC 2998 = tested on: HCC 2998
CAKI-1 = tested on: CAKI-1
SK-MEL-2 = tested on: SK-MEL-2
SF-268 = tested on: SF-268
NCI-H522 = tested on: NCI-H522
A498 = tested on: A498
T47D = tested on: T47D
SF-295 = tested on: SF-295
MDA-MB-231 = tested on: MDA-MB-231
786-0 = tested on: 786-0
SN12C = tested on: SN12C
MDA-MB-435 = tested on: MDA-MB-435
RPMI-8226 = tested on: RPMI-8226
K562 = tested on: K562
ACHN = tested on: ACHN
CCRF-CEM = tested on: CCRF-CEM
M14 = tested on: M14
EKVX = tested on: EKVX
BT-549 = tested on: BT-549
SNB-19 = tested on: SNB-19
MCF7 = tested on: MCF7
LOX IMVI = tested on: LOX IMVI
NCI-H460 = tested on: NCI-H460
UACC-257 = tested on: UACC-257
HOP-92 = tested on: HOP-92
OVCAR-4 = tested on: OVCAR-4
A549 = tested on: A549
Hs-578T = tested on: Hs-578T
SK-MEL-5 = tested on: SK-MEL-5
OVCAR-8 = tested on: OVCAR-8
RXF 393 = tested on: RXF 393
DU-145 = tested on: DU-145
PC-3 = tested on: PC-3
OVCAR-3 = tested on: OVCAR-3
SK-MEL-28 = tested on: SK-MEL-28
MDA-N = tested on: MDA-N
COLO 205 = tested on: COLO 205
OVCAR-5 = tested on: OVCAR-5
TK-10 = tested on: TK-10
U-251 = tested on: U-251
SNB-75 = tested on: SNB-75
SR = tested on: SR
KM12 = tested on: KM12
NCI/ADR-RES = tested on: NCI/ADR-RES
HOP-62 = tested on: HOP-62
NCI-H23 = tested on: NCI-H23
Malme-3M = tested on: Malme-3M

## O=c1c2cc(Br)ccc2oc2nc3n(c(=O)c12)CCCS3
NCI-H226
  GI50: > 100 µM (inactive)
SF-539
  GI50: > 100 µM (inactive)
HCT-116
  GI50: > 100 µM (inactive)
HCT-15
  GI50: > 100 µM
UACC-62
  GI50: > 100 µM (inactive)
IGROV-1
  GI50: > 100 µM (inactive)
MOLT-4
  GI50: > 100 µM (inactive)
SW-620
  GI50: > 100 µM (inactive)
UO-31
  GI50: 39.2 µM (inactive)
HCC 2998
  GI50: > 100 µM (inactive)
CAKI-1
  GI50: > 100 µM (inactive)
SK-MEL-2
  GI50: > 100 µM (inactive)
SF-268
  GI50: > 100 µM (inactive)
NCI-H522
  GI50: > 100 µM (inactive)
A498
  GI50: > 100 µM (inactive)
T47D
  GI50: 30.1 µM (inactive)
SF-295
  GI50: > 100 µM (inactive)
MDA-MB-231
  GI50: > 100 µM (inactive)
786-0
  GI50: > 100 µM (inactive)
SN12C
  GI50: > 100 µM (inactive)
MDA-MB-435
  GI50: > 100 µM (inactive)
RPMI-8226
  GI50: > 100 µM (inactive)
K562
  GI50: > 100 µM (inactive)
ACHN
  GI50: > 100 µM (inactive)
CCRF-CEM
  GI50: > 100 µM (inactive)
M14
  GI50: > 100 µM (inactive)
EKVX
  GI50: > 100 µM (inactive)
BT-549
  GI50: > 100 µM (inactive)
SNB-19
  GI50: > 100 µM (inactive)
MCF7
  GI50: > 100 µM (inactive)
LOX IMVI
  GI50: > 100 µM (inactive)
NCI-H460
  GI50: > 100 µM (inactive)
UACC-257
  GI50: > 100 µM (inactive)
HOP-92
  GI50: > 100 µM (inactive)
OVCAR-4
  GI50: > 100 µM (inactive)
A549
  GI50: > 100 µM (inactive)
Hs-578T
  GI50: > 100 µM (inactive)
SK-MEL-5
  GI50: 47.5 µM (inactive)
OVCAR-8
  GI50: > 100 µM (inactive)
RXF 393
  GI50: > 100 µM (inactive)
DU-145
  GI50: > 100 µM (inactive)
PC-3
  GI50: > 100 µM (inactive)
OVCAR-3
  GI50: > 100 µM (inactive)
SK-MEL-28
  GI50: > 100 µM (inactive)
MDA-N
  GI50: > 100 µM (inactive)
COLO 205
  GI50: > 100 µM (inactive)
OVCAR-5
  GI50: > 100 µM (inactive)
TK-10
  GI50: > 100 µM (inactive)
U-251
  GI50: > 100 µM (inactive)
SNB-75
  GI50: > 100 µM (inactive)
SR
  GI50: > 100 µM (inactive)
KM12
  GI50: > 100 µM (inactive)
NCI/ADR-RES
  GI50: > 100 µM (inactive)
HOP-62
  GI50: > 100 µM (inactive)
NCI-H23
  GI50: > 100 µM (inactive)
Malme-3M
  GI50: > 100 µM (inactive)
